Source: patent US20190022225A1, “PROTOCOL FOR INCREASING LIFE EXPECTANCY IN A TEST SUBJECT” (Mayo Foundation for Medical Education and Research, priority 2015, published 2019)

Legend:
[1] = test system: LDLR−/−/3MR double transgenic mice fed a HFD; assay: Atherosclerosis model, LDLR-/-/3MR double transgenic mice on HFD, ganciclovir weeks 12-13 and 14-15; assay type: in vivo, mouse; conditions: 25 mg/kg ip; versus LDLR−/−/HFD controls
Experimental: The study illustrated in FIG. 43B assessed the extent to which […] based clearance of senescent cells from LDLR^−/− /3MR double transgenic mice improves pre-existing atherogenic disease. LDLR^−/− MR double transgenic mice (10 weeks) and LDLR^−/− single transgenic mice (10 weeks) are fed a high fat diet beginning at Week 0 until Week 12. Gancyclovir is administered to both groups of mice (25 mg/kg intraperitoneally) from weeks 12-13 and weeks 14-15. At week 16, the level of plaque and the number of senescent cells in the plaques are determined.

[2] = test system: doxorubicin-induced senescent cells in p16-3MR mice; assay: Nutlin-3a treatment of p16-3MR transgenic mice with doxorubicin-induced senescence; assay type: in vivo, mouse; conditions: for cells with DNA damage (γH2AX positive) in lung sections: day 35, versus doxorubicin alone
Experimental: The capability of Nutlin-3a to remove senescent cells in vivo was determined in transgenic p16-3MR mice (see, e.g., International Application Publication No. WO2013/090645). The transgenic mouse comprises a p16^Ink4a promoter operatively linked to a trimodal fusion protein for detecting senescent cells and for selective clearance of senescent cells in these transgenic mice, which is illustrated in FIG. 7. The promoter, p16^Ink4a, which is transcriptionally active in senescent cells but not in non-senescent cells (see, e.g., Wang et al., J. Biol. Chem. 276:48655-61 (2001); Baker et al., Nature 479:232-36 (2011)) was engineered into a nucleic acid construct. 3MR (tri-modality reporter) is a fusion protein containing functional domains of a synthetic Renilla luciferase (LUC), monomeric red fluorescence protein (mRFP), and truncated herpes simplex virus (HSV)-1 thymidine kinase (tTK), which allows killing by ganciclovir (GCV) (see, e.g., Ray et al., Cancer Res. 64:1323-30 (2004))). The 3MR cDNA was inserted in frame with p16 in exon 2, creating a fusion protein containing the first 62 amino acids of p16, but not a full-length wild-type p16 protein. […] The p16^Ink4a gene promoter (approximately […]) was introduced upstream of a nucleotide sequence encoding a trimodal reporter fusion protein. Alternatively, a truncated p16^Ink4a promoter may be used (see, e.g., Baker et al., Nature, supra; International Application Publication No. WO2012/177927; Wang et al., supra).). Thus, the expression of 3MR is driven by the p16^Ink4a promoter in senescent cells only. The detectable markers, LUC and mRFP permitted detection of senescent cells by bioluminescence and fluorescence, respectively. The expression of tTK permitted selective killing of senescent cells by exposure to the pro-drug ganciclovir (GCV), which is converted to a cytotoxic moiety by tTK. Transgenic founder animals, which have a C57B16 background, were established and bred using known procedures for introducing transgenes into animals (see, e.g., Baker et al., Nature 479:232-36 (2011)). Female C57/BL6 p16-3MR mice were randomized into doxorubicin+Nutlin-3a treated or doxorubicin only treated groups (see FIG. 6). Senescence was induced by intraperitoneal administration of doxorubicin at 10 mg/kg to the mice ten days prior to administration of Nutlin-3a (Day −10). Nutlin-3a (25 mg/kg) was administered intraperitoneally daily from day 10 to day 24 post-doxorubicin treatment (Group=9 mice). Control mice (doxorubicin treated) were injected with equal volumes of PBS (Group=3 mice). Luminescence imaging (Xenogen Imaging system) was performed at Day 0 (i.e., 10 days post-doxorubicin treatment) as a baseline for each mouse (100% intensity).
Luminescence imaging of the mice was performed on day 7, 14, 21, 28, and 35 following the initiation of Nutlin-3a treatment. Reduction of luminescence (L) was calculated as: L=(Imaging post-Nutlin-3a treatment)/(Baseline Imaging) %. If L is greater than or equal to 100%, the number of senescent cells was not reduced. If L is less than 100%, then the number of senescent cells was reduced. Every mouse was calculated independently, and background was subtracted from each sample.
Experiments were performed to determine the effect of Nutlin-3a treatment on expression of genes associated with senescence. Groups of female C57/BL6 p16-3MR were treated as described above. Three weeks after the end of Nutlin-3a treatment (day 35), the doxorubicin treated mice (control) (N=3) and doxorubicin+Nutlin-3a-treated mice (N=6) were sacrificed. Skin and fat biopsies were collected for RNA extraction; fat biopsies were collected for detection of senescence-associated β-galactosidase; and lungs were flash frozen in cryoprotectant OCT media for cryostat sectioning. […]

[3] = test system: non-senescent aortic endothelial (Endo Aort) cells and pre-adipocytes (Pread); assay: Nutlin-3a toxicity, cell counts of non-senescent endothelial cells and pre-adipocytes; assay type: cell-based; conditions: 0, 2.5, 10 μM, 11 days
Experimental: Non-senescent aortic endothelial (Endo Aort) cells and pre-adipocytes (Pread) were also treated with varying concentrations (0, 2.5 μM, and 10 μM) of Nutlin-3a for a period of 11 days to assess Nutlin-3a toxicity, as described above. Cell counts were taken at the start at Day 0 (NS start) and at the end of Nutlin-3a treatment (NS 0). The difference between counts of cells not treated with Nutlin-3a on day 11 (NS 0) and cell counts from NS start reflects the cell growth over the indicated time period. […] Decrease in apparent survival between NS 0 and NS 2.5 and between NS 0 and NS 10 reflects a decrease in cell growth.

[4] = test system: p21, p16, IL-1a, CXCL-1, IL-6, IL-8 expression in senescent IMR90 cells; assay: qPCR of senescence markers and SASP factors in irradiated senescent IMR90 cells treated with Nutlin-3a; assay type: cell-based, human
Experimental: Primary human fibroblast (IMR90) cells were induced to senesce by applying 10 Gy of irradiation. Seven days after irradiation (Day 0), cells were treated with 10 μM Nutlin-3a or vehicle (DMSO) for nine days (Day 9). The drug or vehicle was refreshed every three days. Drug/vehicle was removed at Day 9 and the cells were cultured for an additional three days (Day 12) in media without drug or DMSO. Cells were then collected, mRNA extracted, and cDNA prepared. Quantitative PCR (qPCR) was then performed to detect expression of various genes. Cells were also collected at Day 12 after drug/vehicle had been removed for three days. The data are presented as an average of three samples. Data were normalized to actin and depicted as a ratio to non-senescent cells.

Compound	% of the aorta covered with plaque [1]	plaque cross-sectional area [1]	luminescence associated with doxorubicin-induced senescence ([2]; 25 mg/kg intraperitoneally daily, day 10 to 24 post-doxorubicin)	luminescence, statistical significance at time points ([2]; day 14, day 28 and day 35 after start of treatment)	mRNA of SASP factors (mmp-3, IL-6) and senescence markers (p21, p16, p53) in skin and fat ([2]; day 35, relative to actin mRNA)	cells with DNA damage (γH2AX positive) in lung sections [2]	cells with DNA damage (γH2AX positive) in lung sections ([2]; listed as nutlin-3A)	senescence-associated β-gal intensity in fat biopsies ([2]; three weeks after treatment, versus doxorubicin alone)	toxicity to non-senescent aortic endothelial cells and pre-adipocytes (percent growth) [3]	level of p21 mRNA, ratio to non-senescent cells ([4]; 10 μM, day 9)	level of IL-1a mRNA ([4]; 10 μM, day 9 and day 12)	levels of CXCL-1, IL-6 and IL-8 mRNA ([4]; 10 μM, day 9 and day 12)	level of p16 mRNA ([4]; 10 μM, drug present (day 9))	level of p16 mRNA ([4]; day 12, three days after drug removal)
Nc1nc(O)c2ncn(COC(CO)CO)c2n1 [ganciclovir]	reduces the % of the aorta covered with plaque	reduced the plaque cross-sectional area	–	–	–	–	–	–	–	–	–	–	–	–
COc1ccc(C2=N[C@@H](c3ccc(Cl)cc3)[C@@H](c3ccc(Cl)cc3)N2C(=O)N2CCNC(=O)C2)c(OC(C)C)c1 [Nutlin-3a]	–	–	reduced luminescence	statistically significant decrease	reduced expression	reduced the number of cells with doxorubicin-induced DNA damage	reduced the number of cells with DNA damage	reduced senescence-associated (SA) β-galactosidase (β-gal) intensity	reduces proliferation but is non-toxic	approximately 90 fold	decreased only after Nutlin-3a had been removed	reduced when Nutlin-3a was present and remained lower after drug removal	did not change	decrease
